From patent publication US8952024B2, “Herbicidal pyrimidone derivatives” (E I du Pont de Nemours and Company, priority 2009, dated 2015)

Legend:
Format in all cases: in vivo
[1] = tested on: umbrella sedge (Cyperus difformis); test: Test B flooded paddy test; conditions: for Plant response rating, Flood, Sedge, Umbrella: 250 g ai/ha, flooded paddy test, visual rating on 0 to 100 scale (0 no effect, 100 complete control) after 13 to 15 days; for Plant response rating, Sedge, Umbrella: Flood (flooded paddy test), 13 to 15 days; for Sedge, Umbrella plant response rating: Flood, 31 g ai/ha, scale 0 to 100 (0 no effect, 100 complete control)
Procedure, shortened: (§1)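 Visual scores run from 0 (no effect) to 100 (complete control), assigned by comparison with controls 13 to 15 days after treatment. Test compounds went straight into water standing 3 cm above the soil, around plants at the 2-leaf stage kept in a greenhouse.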

[2] = tested on: rice (Oryza sativa); test: Test B flooded paddy test; conditions: for Plant response rating, Flood, Rice: 250 g ai/ha, flooded paddy test, visual rating on 0 to 100 scale (0 no effect, 100 complete control) after 13 to 15 days; for Plant response rating, Rice: Flood (flooded paddy test), 13 to 15 days; for Rice plant response rating: Flood, 31 g ai/ha, scale 0 to 100 (0 no effect, 100 complete control)
Procedure, shortened: as §1

[3] = tested on: ducksalad (Heteranthera limosa); test: Test B flooded paddy test; conditions: for Plant response rating, Flood, Ducksalad: 250 g ai/ha, flooded paddy test, visual rating on 0 to 100 scale (0 no effect, 100 complete control) after 13 to 15 days; for Plant response rating, Ducksalad: Flood (flooded paddy test), 13 to 15 days; for Ducksalad plant response rating: Flood, 31 g ai/ha, scale 0 to 100 (0 no effect, 100 complete control)
Procedure, shortened: as §1

[4] = tested on: barnyardgrass (Echinochloa crus-galli); test: Test B flooded paddy test; conditions: for Plant response rating, Flood, Barnyardgrass: 250 g ai/ha, flooded paddy test, visual rating on 0 to 100 scale (0 no effect, 100 complete control) after 13 to 15 days; for Plant response rating, Barnyardgrass: Flood (flooded paddy test), 13 to 15 days; for Barnyardgrass plant response rating: Flood, 31 g ai/ha, scale 0 to 100 (0 no effect, 100 complete control)
Procedure, shortened: as §1

[5] = tested on: giant foxtail (Setaria faberii); test: Test A pre-/postemergence plant response; conditions: for Foxtail, Giant plant response rating: visual injury, 0 to 100 scale (0 no effect, 100 complete control), approx. ten days
Procedure, shortened: (§2)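 Greenhouse pots of loam/sand received directed preemergence soil sprays or postemergence sprays (plants 2–10 cm, 1–2 leaf stage), compounds formulated in non-phytotoxic solvent with surfactant. Injury was rated visually versus untreated controls after about ten days on a 0 (no effect) to 100 (complete control) scale.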

[6] = tested on: velvetleaf (Abutilon theophrasti); test: Test A pre-/postemergence plant response; conditions: for Velvetleaf plant response rating: visual injury, 0 to 100 scale (0 no effect, 100 complete control), approx. ten days
Procedure, shortened: as §2

[7] = tested on: wheat (Triticum aestivum); test: Test A pre-/postemergence plant response; conditions: for Wheat plant response rating: visual injury, 0 to 100 scale (0 no effect, 100 complete control), approx. ten days
Procedure, shortened: as §2

[8] = tested on: corn (Zea mays); test: Test A pre-/postemergence plant response; conditions: for Corn plant response rating: visual injury, 0 to 100 scale (0 no effect, 100 complete control), approx. ten days
Procedure, shortened: as §2

[9] = tested on: large crabgrass (Digitaria sanguinalis); test: Test A pre-/postemergence plant response; conditions: for Crabgrass, Large plant response rating: visual injury, 0 to 100 scale (0 no effect, 100 complete control), approx. ten days
Procedure, shortened: as §2

[10] = tested on: pigweed (Amaranthus retroflexus); test: Test A pre-/postemergence plant response; conditions: for Pigweed plant response rating: visual injury, 0 to 100 scale (0 no effect, 100 complete control), approx. ten days
Procedure, shortened: as §2

[11] = tested on: morningglory (Ipomoea spp.); test: Test A pre-/postemergence plant response; conditions: for Morningglory plant response rating: visual injury, 0 to 100 scale (0 no effect, 100 complete control), approx. ten days
Procedure, shortened: as §2

[12] = tested on: barnyardgrass (Echinochloa crus-galli); test: Test A pre-/postemergence plant response; conditions: for Barnyardgrass plant response rating: visual injury, 0 to 100 scale (0 no effect, 100 complete control), approx. ten days
Procedure, shortened: as §2

[13] = 62 g ai/ha, scale of 0 to 100 where 0 is no effect and 100 is complete control
[14] = 125 g ai/ha, scale 0 to 100, 0 is no effect, 100 is complete control
[15] = Postemergence, 125 g ai/ha, 0 to 100 scale where 0 is no effect and 100 is complete control
[16] = Preemergence, 125 g ai/ha, 0 to 100 scale, 0 = no effect, 100 = complete control
[17] = Preemergence, 500 g ai/ha, 0 to 100 scale, 0 = no effect, 100 = complete control

Cc1ccc(-n2c(-c3cccc(C)c3)ncc(C(=O)C3=C(O)CCCC3=O)c2=O)cc1 [Compound 211]
60: Plant response rating, Velvetleaf [6, 15] | Plant response rating, Velvetleaf [6, 17] | Plant response rating, Pigweed [10, 17]
90: Plant response rating, Crabgrass, Large [9, 17] | Pigweed plant response rating ([10]; Postemergence, 500 g ai/ha)
85: Plant response rating, Flood, Ducksalad [3] | Plant response rating, Ducksalad [3, 14]
30: Plant response rating, Velvetleaf [6, 16]
70: Plant response rating, Sedge, Umbrella [1, 14] | Velvetleaf plant response rating ([6]; Postemergence, 500 g ai/ha) | Plant response rating, Pigweed [10, 15] | Plant response rating, Morningglory [11, 15] | Plant response rating, Barnyardgrass [12, 17]
10: Plant response rating, Crabgrass, Large [9, 16] | Plant response rating, Morningglory [11, 17] | Plant response rating, Barnyardgrass [12, 16]
100: Morningglory plant response rating ([11]; Postemergence, 500 g ai/ha) | Barnyardgrass plant response rating ([12]; Postemergence, 500 g ai/ha)
80: Plant response rating, Flood, Sedge, Umbrella [1] | Foxtail, Giant plant response rating ([5]; Postemergence, 500 g ai/ha) | Crabgrass, Large plant response rating ([9]; Postemergence, 500 g ai/ha)
40: Plant response rating, Crabgrass, Large [9, 15] | Plant response rating, Pigweed [10, 16]
50: Ducksalad plant response rating [3] | Plant response rating, Foxtail, Giant [5, 15] | Plant response rating, Foxtail, Giant [5, 17] | Plant response rating, Barnyardgrass [12, 15]
15: Plant response rating, Flood, Rice [2]
20: Plant response rating, Foxtail, Giant [5, 16] | Corn plant response rating ([8]; Postemergence, 500 g ai/ha)
25: Plant response rating, Barnyardgrass [4, 14]
0: Plant response rating, Sedge, Umbrella [1, 13] | Sedge, Umbrella plant response rating [1] | Plant response rating, Rice [2, 13] | Plant response rating, Rice [2, 14] | Rice plant response rating [2] | Plant response rating, Barnyardgrass [4, 13] | Barnyardgrass plant response rating [4] | Plant response rating, Wheat [7, 15] | Wheat plant response rating ([7]; Postemergence, 500 g ai/ha) | Plant response rating, Wheat [7, 16] | Plant response rating, Wheat [7, 17] | Plant response rating, Corn [8, 15] | Plant response rating, Corn [8, 16] | Plant response rating, Corn [8, 17] | Plant response rating, Morningglory [11, 16]
35: Plant response rating, Flood, Barnyardgrass [4]

COc1ccc(-n2c(-c3cccc(C)c3)ncc(C(=O)C3=C(O)CCCC3=O)c2=O)cc1 [Compound 212]
50: Plant response rating, Flood, Barnyardgrass [4] | Plant response rating, Foxtail, Giant [5, 17] | Plant response rating, Velvetleaf [6, 16] | Plant response rating, Morningglory [11, 15] | Plant response rating, Barnyardgrass [12, 15]
40: Foxtail, Giant plant response rating ([5]; Postemergence, 500 g ai/ha) | Plant response rating, Crabgrass, Large [9, 17]
95: Plant response rating, Flood, Sedge, Umbrella [1] | Plant response rating, Flood, Ducksalad [3]
85: Plant response rating, Sedge, Umbrella [1, 13] | Plant response rating, Ducksalad [3, 13] | Ducksalad plant response rating [3]
10: Plant response rating, Flood, Rice [2] | Plant response rating, Foxtail, Giant [5, 16] | Plant response rating, Crabgrass, Large [9, 15] | Plant response rating, Barnyardgrass [12, 16]
60: Plant response rating, Pigweed [10, 16]
70: Plant response rating, Velvetleaf [6, 15] | Velvetleaf plant response rating ([6]; Postemergence, 500 g ai/ha) | Plant response rating, Velvetleaf [6, 17]
80: Sedge, Umbrella plant response rating [1] | Plant response rating, Morningglory [11, 17]
90: Plant response rating, Sedge, Umbrella [1, 14] | Plant response rating, Ducksalad [3, 14] | Plant response rating, Pigweed [10, 17] | Plant response rating, Barnyardgrass [12, 17]
30: Crabgrass, Large plant response rating ([9]; Postemergence, 500 g ai/ha)
0: Plant response rating, Rice [2, 13] | Plant response rating, Rice [2, 14] | Rice plant response rating [2] | Plant response rating, Barnyardgrass [4, 13] | Plant response rating, Barnyardgrass [4, 14] | Barnyardgrass plant response rating [4] | Plant response rating, Foxtail, Giant [5, 15] | Plant response rating, Wheat [7, 15] | Wheat plant response rating ([7]; Postemergence, 500 g ai/ha) | Plant response rating, Wheat [7, 16] | Plant response rating, Wheat [7, 17] | Plant response rating, Corn [8, 15] | Corn plant response rating ([8]; Postemergence, 500 g ai/ha) | Plant response rating, Corn [8, 16] | Plant response rating, Corn [8, 17] | Plant response rating, Crabgrass, Large [9, 16] | Plant response rating, Morningglory [11, 16]
100: Plant response rating, Pigweed [10, 15] | Pigweed plant response rating ([10]; Postemergence, 500 g ai/ha) | Morningglory plant response rating ([11]; Postemergence, 500 g ai/ha) | Barnyardgrass plant response rating ([12]; Postemergence, 500 g ai/ha)
